Experimental data from patent publication US9782464B2, “Methods and compositions for inhibiting diseases of the central nervous system” (Board of Regents of the University of Nebraska, priority 2008, dated 2017).

What was measured:
[1] = test system: primary microglia; experiment: Flow cytometry of active caspase-3 and cathepsin B (CB) in microglia; format: cell-based, mouse; settings: N-α-syn-stimulated cultures
Protocol: Samples from cell fractions were labeled with fluorescently labeled Abs to CD4, CD8, CD25, CTLA-4, CD62L, Fas ligand (FasL), Fas (APO-1), CD1 b, and intracellular FoxP3 (eBioscience) and active caspase-3 (Abcam) and analyzed with a FACSCalibur flow cytometer (BD Biosciences). FITC-latex beads ([…], 2.5% solids; Sigma-Aldrich) were added to microglial cultures for 30 minutes. Microglia were then detached and acid-washed (PBS, pH 6.0) to quench fluorescence of nonphagocytosed beads, and cells were analyzed by flow cytometry and gated to CD11b+ cells. Fluorescence intensity was normalized to beads alone.
Apoptotic cells were detected using the TACS TdT Fluorescein In Situ Apoptosis Detection kit (R&D Systems) according to the manufacturer's protocol and were visualized by a fluorescent microscope. MFI of TUNEL+ cells was determined per field using ImageJ and was normalized to DAPI-stained nuclei (n=3, six fields per well). Caspase activity was determined using the SensoLyte Homogeneous Rh110 Caspase-3/7 Assay kit (AnaSpec) according to the manufacturer's protocol. Cell viability was determined by 3-(4,5-dimethylthiazol-2-yl)-2,5-diphenyl tetrazolium bromide (MTT) activity as described previously. Functional grade Abs to mouse FasL (2 μg/ml; eBioscience) and Fas (5 μg/ml; BD PharMingen) and CA074ME (BIOMOL) were used.

[2] = test system: MES23.5 cells; experiment: Cathepsin B inhibition and neurotoxicity, microglial supernatants on MES23.5 cells; format: cell-based; settings: inhibitor 1 μM, N-α-syn 100 nM
Protocol: MES 23.5 cells were cultured in 75-cm^2 flasks in DMEM/F12 with 15 mM HEPES (Invitrogen) containing N2 supplement (Invitrogen), 100 U/ml of penicillin, 100 μg/ml streptomycin, and 5% FBS. MES23.5 cells is a cell line derived using somatic cell fusion of rat embryonic mesencephalon cells and the murine neuroblastoma-glioma cell line N18TG2 that produce dopamine and express tyrosine hydroxylase (Crawford et al. (1992) J. Neuroscience 12:3392-3398). Cells were grown to 80% confluence then plated at a density of 10×10^4 cells on sterile glass coverslips. Microglia were plated in 6 well plates and incubated for 1 hour with or without 1 μM of cathepsin B inhibitors, CA-074 [cell impermeable] or CA-074 Me [cell permeable] (Sigma), in a 37° C., 5% CO2 incubator to inhibit residual cathepsin B expression (Gan et al. (2004) J. Biol. Chem., 279:5565-5572). […] MES 23.5 cell viability was assessed using the Live/Dead cytotoxicity assay (Invitrogen) as previously described. Live cells were distinguished by the uptake of calcein AM to acquire a green fluorescence [excitation/emission (ex/em) 495/515 nm], while dead cells acquired a red fluorescence (ex/em 495/635 nm) due to the uptake of ethidium homodimer-1 (EthD-1). Cell enumerations were performed using fluorescence microscopy (200× magnification, n=6 wells per group, 3 frames per well).

[3] = test system: SPC (spleen cells); experiment: Antigen-specific 3H-thymidine proliferation of SPC from immunized mice; format: cell-based, mouse
[4] = test system: anti-CD3 stimulated T cells; experiment: PI uptake cytotoxicity of anti-CD3 stimulated T cells (flow cytometry); format: cell-based, mouse; settings: 24 hours
Protocol: To assess α-Syn-mediated cytotoxicity, purified T cells were stimulated with anti-CD3 and cultured at a density of 1×10^6 cells/ml for 24 hours in media alone or in the presence of 4YSyn or N-4YSyn at concentrations of 1, 3, 10, or 30 μg/ml. Cells were stained with PI, washed and the percentages of PI^+ dead cells and MFI were analyzed by flow cytometry.

[5] = test system: TNF-α; experiment: Cytometric bead array of T cells restimulated with antigen; format: cell-based, mouse; settings: T cells from N-4YSyn-immunized donors restimulated in vitro
Protocol: Triplicate co-cultures of antigen presenting cells (APC) and T cells from PBS, 4YSyn- and N-4YSyn-immunized mice were stimulated with 4YSyn or N-4YSyn. After 24 hours of culture, 50 μl samples were collected, centrifuged, and supernatants frozen at −80° C. until utilized. Frozen supernatants were thawed only once and analyzed using the BD Cytometric Bead Array Mouse Th1/Th2 Kit (BD Biosciences, San Jose, Calif.) according to the manufacturer's instructions.

[6] = test system: effector T cells; experiment: Treg inhibition of CD3-mediated effector T cell proliferation; format: cell-based, mouse; settings: Treg from FoxP3-GFP donors, ratio of 1:1
Protocol: Seven days following treatment, mice were sacrificed and single cell suspensions were prepared from inguinal lymph nodes and spleens. CD4+ T cell populations from spleens and lymph nodes were enriched by negative selection with CD4-enrichment columns (R & D Systems) followed by CD25-PE positive selection with AutoMACS (Miltenyi Biotec). […] Proliferation and inhibition assays were performed as described. MPTP-intoxicated mice received an i.v. tail injection of 5×10^7 SPC or 1×10^6 Treg in 0.25 ml of HBSS.

| Compound | diminution of active caspase-3+ cells [1] | protection of DA cells v. N-α-syn alone [2] | proliferative response of SPC to in vitro stimulation with the antigen ([3]; B6 mice immunized with N-4YSyn/PBS without adjuvant) | proliferative response of SPC to in vitro stimulation with the antigen ([3]; B10.BR mice immunized in CFA/IFA) | % PI+ T cells ([4]; 1 μg/ml) | MFI of PI-stained T cells ([4]; 1 μg/ml) | % PI+ T cells ([4]; 3 μg/ml) | MFI of PI-stained T cells ([4]; 3 μg/ml) | % PI+ T cells ([4]; 10 μg/ml) | MFI of PI-stained T cells ([4]; 10 μg/ml) | % PI+ T cells ([4]; 30 μg/ml) | MFI of PI-stained T cells ([4]; 30 μg/ml) | TNF-α levels [5] | inhibition of effector T cell proliferation to anti-CD3 stimulation by Treg [6] |
| --- | --- | --- | --- | --- | --- | --- | --- | --- | --- | --- | --- | --- | --- | --- |
| CCCNC(=O)[C@H]1O[C@@H]1C(=O)N[C@H](C(=O)N1CCC[C@H]1C(=O)OC)[C@@H](C)CC [CA-074 Me] | 11.1±0.5% | 87% |  |  |  |  |  |  |  |  |  |  |  |  |
| N-4YSyn: peroxynitrite-nitrated recombinant His-tagged C-terminal 40 aa fragment of mouse α-Syn |  |  | significant lymphocyte proliferative response | significant proliferative responses | 15.9% | 42.8 | 17.9% | 58.7 | 47.8% | 71.6 | 91.3% | 106.1 | 26.0 ± 1.2 pg/mL | 20% |
